Laboratory results: patent publication US9707417B2, “Use of benzotropolone derivatives as UV absorbers and antioxidants and their use in sunscreens and/or cosmetic compositions” (BASF SE, priority 2008, dated 2017)
“Also recorded” adds a separate entry of the source.

Experiments:
[1] = Measurement of photostability (irradiation of highly diluted solution of the UV-filter, analysis by UV-spectroscopy); format: physicochemical; details: for Half time: photostability, diluted solution in ethanol, first order kinetic model, half-life under conditions of COLIPA standard sun irradiation
Protocol: The method used for assessment of photostability is based on the irradiation of a highly diluted solution of the UV-filter.
The analysis after certain doses of irradiation is performed by UV-spectroscopy. The concentration of the UV-absorber in ethanol is adjusted to values between 1·10^−5 and 1·10^−6 mol/l, such that the absorbance of the solution in cuvette of 1 cm optical path length is ≦than 0.2. The mutual protection of filter molecules can be excluded under such conditions.
Prior to irradiation of a sample the UVB-intensity at the sample position is measured with a UV-radiometer (RM-12, Dr. Gröbel Electronic GmbH).
This radiometer is calibrated by comparison with a measurement of the spectral output of the metal halide lamp (including light guide and cut-off filter) using a wavelength-resolved radiometer (Gamma C11).
Therefore the relationship of the reading of the RM-12 radiometer and the corresponding spectral output of the lamp is known, and one is able to determine the wavelength-resolved intensities by measuring the UVB-intensity. By changing the distance between the end of the light guide and the cuvette, the UVB-intensity can be varied in the range of 100 μW/cm^2 and 4500 μW/cm^2.
For sample irradiation the highest possible intensity was used (4.5 mW/cm^2 UVB-intensity measured with the Macam 103 radiometer).
The irradiation time is varied from 0 to 180 min.
The dose the sample has received after 180 min corresponds to 60 MED.
During irradiation the sample was stirred. After certain intervals of irradiation, the samples were analyzed in a UV-spectrometer (Perkin Elmer, Lambda 16).
From the absorbance values at each dose of irradiation the concentration may be calculated using Lambert-Beer's law.
In order to get the half-life of the substance, a first order kinetic model was fitted to the experimental data. Since the UV-spectrum of the lamp and the UV-spectrum of the COLIPA standard sun are known, one can calculate the respective half-life of the UV-absorber under conditions of COLIPA standard sun irradiation [Bernd Herzog, Stefan Müller, Myriam Sohn, Uli Osterwalder, “New Insight and Prediction of Photostability of Sunscreens”, SÖFW Journal 133, 26-36 (2007)].

[2] = UV shielding properties (UV spectra in ethanol); format: physicochemical; set-up: Absorption maximum 1 λmax / Absorption maximum 2 λmax: unit not given here; details: for Absorption maximum 1 A^1%1 cm / Absorption maximum 1 λmax / Absorption maximum 2 A^1%1 cm / Absorption maximum 2 λmax: UV spectra in ethanol
Source text: The UV shielding properties of the benzotropolone derivatives were investigated by measuring their UV spectra in ethanol.
In the following table the investigated absorption maxima (λmax) together with the corresponding A^1%1cm values are listed.

[3] = DPPH assay (antioxidative / antiradical activity); format: biochemical; details: comparison with vitamin C, vitamin E, resveratrol
Source text: For tests of antioxidative activity, the DPPH assay is used. DPPH (2,2-Diphenyl-1-picryl-hydrazyl) is a stable radical, which absorbs in its radical form at 515 nm. Upon reduction by an antioxidant (AH), the absorption disappears: DPPH.+AH→DPPH—H+A. (1)
The rate of reaction (1) can be rather different for different antioxidants.
In the test, the ratio of the molar concentrations of the antioxidant and DPPH is varied (this ratio is named “EC”=efficient concentration), and the concentration of DPPH in the equilibrium state is measured for each ratio. […] The smaller the EC50 value, the more efficient is the antioxidant. Thus, the inverse, 1/EC50, can be used to quantify the antiradical power.
Solutions of DPPH and the antioxidants in ethanol are prepared separately and added together for starting the reaction (0.5 cm^3 of a 250 μM antioxidant solution is added to 2.5 cm^3 of a 100 μM DPPH solution). The absorption is measured using a Perkin Elmer Lambda 20 spectrophotometer.

[4] = Solubility in water; format: physicochemical

Compound	photostability (in words) [1]	Half time [1] [h]	shielding properties in the UV region (in words) [2]	Absorption maximum 1 A^1%1 cm [2]	Absorption maximum 1 λmax [2]	Absorption maximum 2 A^1%1 cm [2]	Absorption maximum 2 λmax [2]	antioxidant/radical scavenging power compared to state-of-the-art antioxidants (in words) [3]	Solubility in water [4] [%]
O=c1c(O)cccc2cc(O)c(O)c(O)c12 [Compound B-1]	high photostability	31.5	high shielding properties in the UV region; also recorded: high absorption in the UV-C and UV-B region	935	281	1179	305		
O=C(O)c1cc(O)c(=O)c2c(O)c(O)ccc2c1 [Compound B-2]	high photostability	33.6	high shielding properties in the UV region; also recorded: UV-C/UV-B shielding properties as well as UV-A shielding properties	966	276	460	400		
COC(=O)c1cc(O)c(=O)c2c(O)c(O)ccc2c1 [Compound B-3]	extraordinary high inherent photostability	61.9	high shielding properties in the UV region; also recorded: UV-C/UV-B shielding properties as well as UV-A shielding properties	1007	277	516	395		
COc1cc2cc(C(=O)O)cc(O)c(=O)c2c(O)c1O [Compound B-4]	high photostability	16.6	high shielding properties in the UV region; also recorded: UV-C/UV-B shielding properties as well as UV-A shielding properties	864	307	305	396		
COC(=O)c1cc(O)c(=O)c2c(O)c(O)c(OC)cc2c1 [Compound B-5]	extraordinary high inherent photostability	116.5	high shielding properties in the UV region; also recorded: UV-C/UV-B shielding properties as well as UV-A shielding properties	1008	308	399	403		
COC(=O)c1cc(O)c(=O)c2c(O)c(O)c(C)cc2c1 [Compound B-6]			high shielding properties in the UV region; also recorded: UV-C/UV-B shielding properties as well as UV-A shielding properties	997	280	447	396		
COC(=O)c1cc(O)c(=O)c2c(O)c(O)c(O[C@@H]3O[C@H](CO)[C@@H](O)[C@H](O)[C@H]3O)cc2c1 [Compound B-7]				593	287	246	399		
COC(=O)c1cc(O)c(=O)c2c(O)c(O)c(OCCCO[C@@H]3O[C@H](CO)[C@@H](O)[C@H](O)[C@H]3O)cc2c1 [Compound B-13]	high photostability	51.3		573	310	208	404	more effective in the DPPH assay than the state-of-the-art antioxidant resveratrol	10.467
COC(=O)c1cc(O)c(=O)c2c(O)c(O)c(OCCCCCC(=O)O)cc2c1 [Compound B-15]				754	310	269	398		
COC(=O)c1cc(O)c(=O)c2c(O)c(O)c(O[C@@H]3O[C@H](CO)[C@H](O)[C@H](O)[C@H]3O)cc2c1 [Compound B-16]				550	288	204	397		
O=C(O)CCCCCOc1cc2cc(C(=O)O)cc(O)c(=O)c2c(O)c1O [Compound B-19]	high photostability	40.1		726	308	236	397		
Cc1cc2cc(C(=O)O)cc(O)c(=O)c2c(O)c1O [Compound B-31]				1065	281	477	393		
CCCCCCCC/C=C\CCCCCCCCOc1cc2cc(C(=O)OC)cc(O)c(=O)c2c(O)c1O [Compound B-32]	high photostability	16.6		574	310	203	404		
CCCCCCCCCCCCOc1cc2cc(C(=O)OCCCCCCCC)cc(O)c(=O)c2c(O)c1O [Compound B-33]				575	310	210	403		
CCCCCCCCOC(=O)c1cc(O)c(=O)c2c(O)c(O)c(C)cc2c1 [Compound B-34]				748	282	333	398		
CCCCCCCCCCCCOc1cc2cc(C(=O)OC)cc(O)c(=O)c2c(O)c1O [Compound B-35]				611	310	231	404		
CCOC(=O)CCCCCOc1cc2cc(C(=O)O)cc(O)c(=O)c2c(O)c1O [Compound B-36]	high photostability	22.8		750	309	250	398		
COC(=O)c1cc(O)c(=O)c2c(O)c(O)c(O[C@@H]3O[C@H](COC(C)=O)[C@H](OC(C)=O)[C@H](OC(C)=O)[C@H]3OC(C)=O)cc2c1 [Compound B-37]				394	285	88	393		
COC(=O)c1cc(O)c(=O)c2c(OC)c(O)c(OCCO)cc2c1 [Compound B-45]				804	306	302	401		
Cc1cc2cc(C(=O)NCCCCP(=O)(O)O)cc(O)c(=O)c2c(O)c1O [Compound B-49]				601	278	270	381		
COc1cc2cc(CO)cc(O)c(=O)c2c(O)c1O [Compound B-50]				1027	305				
COC(=O)c1cc(O)c(=O)c2c(O)c(O)cc(CCO)c2c1 [Compound B-52]				437	280	176	399		
CCCCCCCCCCCCOC(=O)c1cc(O)c(=O)c2c(O)c(O)c(OCCCCCCCCCCCC)cc2c1 [Compound B-53]				533	309	193	402		
CCc1ccc2c(CC)c(O)c(O)c(O)c2c(=O)c1O [Compound B-54]				1142	309				
CCCCc1ccc2c(CCCC)c(O)c(O)c(O)c2c(=O)c1O [Compound B-55]				788	311				
O=C(O)c1cc(O)c(=O)c2c(O)c(O)c(O[C@@H]3O[C@H](CO)[C@@H](O)[C@H](O)[C@H]3O)cc2c1 [Compound B-59]				497	300	174	388		
Cc1cc2cc(CO)cc(O)c(=O)c2c(O)c1O [Compound B-61]				711	295				
COC(=O)c1cc(O)c(=O)c2c(O)c(O)cc(CCC(=O)O)c2c1 [Compound B-62]				799	281	383	406		
